Patent US11820994B2, “Methods of inducing apomictic or sexual reproduction” (priority 2018, dated 2023)

Columns and labels:
Arabidopsis embryo sacs = assay: Induction of parthenogenesis and autonomous endosperm formation in pistils; assay type: cell-based; settings: 2 μM BR or 50 mM glucose prior to central cell callose deposition
Method: (§1) Scale bars: 50 μm (FIG. 51A), 20 μm (FIGS. 51B-51E).
FIG. 52 Parthenogenesis in putatively diploid Arabidopsis embryo sacs induced by treatment of pistils in emasculated flowers with 2 μM BR or 50 mM glucose. To prevent fertilization, stigmas of pistils were clipped while anthers were immature. These pistils were also treated premeiotically with BR and glucose.
Functional apomixis requires not only apomeiosis but also parthenogenesis and, in plants, endosperm formation.

B. stricta ovules [1] = assay: In vivo floral dip in epiBL solution, dyad formation; settings: flower buds dipped 3 h in 10 μmol L−1 epiBL; controls 7%
Method: (§2) FIG. 40 Frequencies of B. stricta ovules (dyads and tetrads) that were undergoing dyad formation (sexual or diplosporous) at the end of pistil treatment as affected by i) a 3 h in vivo floral dip in solutions containing epibrassinolide (epiBL) or ii) culturing of pistils in epiBL-containing media with in vitro culture of pistils initiated when pistils were in the 1-I or the 2-III to 2-IV stages. Numbers of correctly-staged ovules (dyads plus tetrads) per data point averaged 53 and ranged from 27-82.
(§3) epiBL is the naturally occurring and most biologically active form of BR. Applications of epiBL to pistils of sexual B. stricta, in vivo or in vitro, caused MMC to abort meiosis and instead produce dyads (FIG. 40). […] This induced 31% dyad formation, compared to 7% for the controls (a frequency often observed in sexual plants where they represent an intermediate stage of sexual meiosis). A similar dyad induction frequency (29%) was obtained by culturing 1-I to 2-II staged B. stricta pistils on a 0.1 μmol L−1 epiBL medium for 2 d (FIG. 40).

[2] = system: B. stricta (Drummond's rockcress) ovules; assay: Pistil culture factorial experiment with sucrose, glucose, epiBL, DTBA and 5-azaC; assay type: cell-based, Boechera stricta
Text: (§4) To address redox instability, pistils were exposed to the antioxidant DTBA, an antioxidant that protects thiol groups in proteins from oxidization. To address bioenergetic stress, pistils were exposed to sugars. Glucose signaling is one of the most ancient and central signaling pathways in animals and plants and is involved in gene expression, primary and secondary metabolism, and regulation of growth and development (98). In Arabidopsis, rates of glycolysis and mitochondrial bioenergetics are sensed by TOR, which then control root meristem activation (18). If sufficient sugar is supplied, TOR should be activated. Active TOR protects BZR1 and other important BR-regulated enzymes from degradation, and this leads to plant growth (25). Factorial experiments were designed to test the effects of sucrose, glucose, epiBL, DTBA and 5-azaC on apomixis induction. These were designed for each of three sexual species, B. stricta, arabidopsis and cowpea. The experiments were performed and ratios of apomeiosis to meiosis were documented.
Both the carbohydrate variable and the other components variable were highly significant (P<0.001). Additionally, three ovules from the sucrose plus epiBL treatment (epiBL in the pretreatment and in the medium) had formed aposporous embryo sacs (AES). Also, two ovules, one from the sucrose-epiBL-epiBL treatment and one from the glucose-DTBA-DTBA treatment, had formed Antennaria-type diplosporous embryo sacs (FIGS. 48A-48H).
(§5) Cytological Analyses. Arabidopsis, Drummond's rockcress and cowpea floral buds were fixed in FAA (v/v: 3.7% formaldehyde, 5% acetic acid, 50% ethanol) for 48 h and cleared in 2:1 benzyl benzoate dibutyl phthalate (BBDP) (80): 1) 70% EtOH, 30 min; 95% EtOH, ≥4 h (2×); 95% EtOH:BBDP (2:1), 2 h; 95% EtOH:BBDP (1:2), 4 h; BBDP, 4 h; BBDP, overnight. Cleared pistils were mounted (up to 16 per slide) and measured from the pedicel base to the top of the stigma. […] DAPI fluorescence was detected with a Zeiss LSM 510 confocal microscope with excitation at 408 nm, dichroic reflector at HFT488 nm and detection at 450-650 nm. […]
Presence of the following ovule characteristics were recorded: MMCs, Antennaria type diplosporous 1-2 nucleate ES, sexual or Taraxacum type diplosporous dyads, sexual tetrads, sexual or Taraxacum type diplosporous 1-2 nucleate ES, AI and AES. Developmental stages for the majority of ovules per pistil were recorded, and pistil lengths for the following stages (125) were recorded: 1-II, ovule meristems protruding from placentae (precedes MMC formation); 2-IV, meiosis; 3-III, vacuole in immature ES beginning to appear; 4-VI, nuclear divisions in endosperm underway. […]

B. stricta ovules [3] = assay: In vitro culture of pistils on epiBL-containing medium, dyad formation; assay type: cell-based
Method: as §2, §3

Arabidopsis ovules [4] = assay: Topical application of BR or glucose to intact pistils, apomeiosis induction; assay type: in vivo, Arabidopsis thaliana
Method: Most of the functional megaspores from these treatments originated by Taraxacum-type diplospory (FIG. 42) with frequent subepidermal layer of cells with or without a parietal cell. A few cases of Antennaria-type diplospory were also observed (FIG. 43).
as §5
Presence of the following ovule characteristics were recorded: MMCs, Antennaria type diplosporous 1-2 nucleate ES, sexual or Taraxacum type diplosporous dyads, sexual tetrads, sexual or Taraxacum type diplosporous 1-2 nucleate ES, AI and AES. […]
For topical applications, sepals of floral buds were separated, and pistil lengths were measured using a dissecting microscope. […]

Arabidopsis anthers = assay: Anthers cultured in vitro with epiBL, unreduced pollen microspores; assay type: cell-based; settings: 0.1 μM epiBL on 2% sucrose medium for 24 h
Text: as §1

Arabidopsis ovules [5] = assay: Pistil culture experiments with 5-azaC, BR (epiBL), DTBA, H2O2 and sugars, meiosis to apomeiosis; assay type: cell-based, Arabidopsis thaliana; settings: BR alone
Text: as §4
Two factorial experiments were conducted using immature arabidopsis pistils. In the first experiment, no 5-azaC, 5-azaC in the pretreatment only, or 5-azaC in both the pretreatment and the tissue culture medium were tested.
Cytological Analyses. Arabidopsis, Drummond's rockcress and cowpea floral buds were fixed in FAA (v/v: 3.7% formaldehyde, 5% acetic acid, 50% ethanol) for 48 h and cleared in 2:1 benzyl benzoate dibutyl phthalate (BBDP) (80): 1) 70% EtOH, 30 min; 95% EtOH, ≥4 h (2×); 95% EtOH:BBDP (2:1), 2 h; 95% EtOH:BBDP (1:2), 4 h; BBDP, 4 h; BBDP, overnight. Cleared pistils were mounted (up to 16 per slide) and measured from the pedicel base to the top of the stigma. Ovule development stages were studied using a BX53 microscope equipped with differential interference contrast optics and a MicroFire 599809 camera (Olympus, Center Valley, Pa., USA). For chromosome staining, pistils were soaked in 95% ethanol that contained 0.1 mg L^−1 4′,6-diamidino-2-phenylindole (DAPI). Callose was stained by soaking DAPI stained pistils in aqueous aniline blue (Millipore Sigma, Darmstadt, Germany) (124). DAPI fluorescence was detected with a Zeiss LSM 510 confocal microscope with excitation at 408 nm, dichroic reflector at HFT488 nm and detection at 450-650 nm. Callose was distinguished from DAPI by detection at 550-650 nm.
Presence of the following ovule characteristics were recorded: MMCs, Antennaria type diplosporous 1-2 nucleate ES, sexual or Taraxacum type diplosporous dyads, sexual tetrads, sexual or Taraxacum type diplosporous 1-2 nucleate ES, AI and AES. Developmental stages for the majority of ovules per pistil were recorded, and pistil lengths for the following stages (125) were recorded: 1-II, ovule meristems protruding from placentae (precedes MMC formation); 2-IV, meiosis; 3-III, vacuole in immature ES beginning to appear; 4-VI, nuclear divisions in endosperm underway. To determine average timing of meiosis onset, pistils primarily containing premeiotic (2-III) ovules were located under low light conditions 1 h before the lights came on in the morning. Corresponding sepals were marked with a small point permanent marker. Pistils were then randomly harvested for analysis when the lights came on and 3 h thereafter.
Pistils were aseptically excised, but not disinfested, at the early pre-MMC to MMC stages and incubated in vitro. The basal culture medium for arabidopsis and Drummond's rockcress was MS (126) (Caisson Laboratories, Inc., Smithfield, UT USA) with 20 g L^−1 sucrose or glucose and solidified with 1.45 g L^−1 Phytogel (MilliporeSigma).

Question: What does the source list for CC(C)[C@@H](C)[C@@H](O)[C@H](O)[C@@H](C)[C@H]1CC[C@H]2[C@@H]3COC(=O)[C@H]4C[C@H](O)[C@H](O)C[C@]4(C)[C@H]3CC[C@]12C [epiBL, epibrassinolide]?
Answer: callose deposition, parthenogenesis and autonomous endosperm formation (Arabidopsis embryo sacs): prevented stress-associated callose deposition and activated parthenogenesis and autonomous endosperm formation; dyad formation (B. stricta ovules [1]): 31%; number of ovules that formed aposporous embryo sacs (AES) ([2]; sucrose plus epiBL, epiBL in the pretreatment and in the medium): three; number of ovules that formed Antennaria-type diplosporous embryo sacs ([2]; sucrose-epiBL-epiBL treatment): one; dyad induction frequency (B. stricta ovules [3]; 1-I to 2-II staged pistils on 0.1 μmol L−1 epiBL medium for 2 d): 29%; unreduced embryo sacs forming from epiBL-induced dyads (B. stricta ovules [3]; epiBL treatments): only rarely observed; ratios of observed dyads (B. stricta ovules [3]; epiBL treatments (in vivo or in vitro)): 30%; apomeiotic dyad formation (Arabidopsis ovules [4]; intact pistils treated with BR or glucose solutions (2 μM BR or 50 mM glucose)): induced high frequency apomeiotic dyad formation; Taraxacum-type diplospory induction (Arabidopsis ovules [4]; topical applications 24 h before or immediately before meiosis): induced Taraxacum-type diplospory; unreduced pollen microspores (Arabidopsis anthers): Unreduced pollen dyads of microspores; AES formation (Arabidopsis ovules [5]): Low levels; ovules with meiosis stopped, MMC undergoing Taraxacum type dyad or ES formation (Arabidopsis ovules [5]): 45%
